Assay results from article PMC3616494 (Journal of medicinal chemistry, 2008).
Entries after “also recorded” stand apart in the source; their conditions may differ.

Assays:
human A3 AR = target: T1, human A3 AR (Homo sapiens, UniProt P0DMS8); assay: Radioligand binding at human A3 AR; details: stated for all subtypes of ARs (hA1, hA2A, hA3)
T1 sequence (P0DMS8 1-318): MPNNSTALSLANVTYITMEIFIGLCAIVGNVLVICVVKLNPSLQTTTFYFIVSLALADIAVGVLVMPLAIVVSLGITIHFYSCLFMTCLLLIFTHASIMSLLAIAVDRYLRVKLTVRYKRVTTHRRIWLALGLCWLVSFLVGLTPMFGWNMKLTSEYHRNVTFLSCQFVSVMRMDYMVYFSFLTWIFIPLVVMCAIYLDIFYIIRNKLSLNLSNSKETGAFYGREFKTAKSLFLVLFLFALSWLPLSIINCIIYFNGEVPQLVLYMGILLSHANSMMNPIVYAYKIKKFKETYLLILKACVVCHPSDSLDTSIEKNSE

rat A3 AR = target: T2, rat A3 AR (Rattus norvegicus, UniProt P28647); assay: Radioligand binding at rat A3 AR; details: for Binding affinity at the rat A3 AR (in words): CHO cells
T2 sequence (P28647 1-320): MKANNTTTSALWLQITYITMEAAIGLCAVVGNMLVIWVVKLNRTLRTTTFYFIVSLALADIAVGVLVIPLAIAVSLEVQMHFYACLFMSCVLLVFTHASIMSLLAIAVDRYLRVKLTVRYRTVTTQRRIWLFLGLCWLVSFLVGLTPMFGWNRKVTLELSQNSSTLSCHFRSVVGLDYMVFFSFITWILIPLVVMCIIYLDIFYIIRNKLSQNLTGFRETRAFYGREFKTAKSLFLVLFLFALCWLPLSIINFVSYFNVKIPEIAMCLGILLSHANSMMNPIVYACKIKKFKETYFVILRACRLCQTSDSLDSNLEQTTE

human A2B AR = details: cited from earlier work

## O[C@H]1[C@@H](O)CS[C@@H]1n1cnc2c(NCc3cccc(Br)c3)nc(Cl)nc21 [Compound 7f]
Human A3 AR
  Binding affinity (in words): totally devoid of binding affinities

## O[C@@H]1[C@H](O)CS[C@H]1n1cnc2c(NCc3cccc(Br)c3)nc(Cl)nc21 [Compound 6d]
Rat A3 AR
  Ki: 6.1 ± 1.8 nM

## O[C@H]1[C@@H](O)CS[C@@H]1n1cnc2c(NCc3cccc(I)c3)nc(Cl)nc21 [Compound 7g]
Human A3 AR
  Binding affinity (in words): totally devoid of binding affinities

## CNc1ncnc2c1ncn2[C@@H]1SC[C@@H](O)[C@H]1O [Compound 7a, (2R,3R,4S)-Tetrahydro-2-(6-(methylamino)-9H-purin-9-yl)thiophene-3,4-diol]
Rat A3 AR
  Binding affinity at the rat A3 AR (in words): totally devoid of A3AR binding affinity; also recorded: lost their binding affinities

## CNc1nc(Cl)nc2c1ncn2[C@@H]1SC[C@@H](O)[C@H]1O [Compound 6a]
Rat A3 AR
  Ki: 658 ± 160 nM
  Binding affinity at the rat A3 AR (in words): lost their binding affinities

## O[C@@H]1[C@H](O)CS[C@H]1n1cnc2c(NCc3cccc(I)c3)nc(Cl)nc21 [Compound 6e]
Human A2B AR
  Activity as agonist or antagonist in a cyclic AMP functional assay at the hA2B AR: inactive as agonist or antagonist

## O[C@@H]1[C@H](O)CS[C@H]1n1cnc2c(NCc3cccc(F)c3)nc(Cl)nc21 [Compound 6b]
Rat A3 AR
  Ki: 36.2 ± 10.7 nM
